These results are taken from US20240316028A1, “[…] FORMULATIONS AND THEIR USES” (priority 2023, published 2024).

Molecules are shown by their SMILES. Structures can show the parent of a compound that is named as a salt.

Data set [1] is classed as physicochemical. The method, then: All excipients used in the formulations were compatible with physostigmine before and after eBeam of 25 kGy. NaOH was used to adjust the cream pH and was added before mixing with physostigmine.
For data set [2] the following is noted: thermal and photolytic conditions.

For `CNC(=O)Oc1ccc2c(c1)[C@]1(C)CCN(C)[C@@H]1N2C` [Physostigmine Salicylate], the “Total Impurities Pre eBeam” value in data set [1] (Table 13) turned out to be 0.11. Besides, the “Total Impurities Post eBeam T0” value in data set [1] (Table 13, eBeam 25 kGy) is 0.15. Regarding `CN1[C@@H]2CC[C@H]1C[C@@H](OC(=O)C(CO)c1ccccc1)C2` (stereo partly drawn) [atropine sulfate], the “thermal and photolytic degradation” value in data set [2] is given as “No significant variation”.
